Earlier results as cited in US8729024B2, “Targeted delivery of pharmaceutical compounds” (The Resesarch Foundation of State University of New York, priority 2006, dated 2014).

System: animal models of Duchenne muscular dystrophy (DMD), multiple sclerosis, myasthenia gravis, hearing loss and traumatic nerve injury

CC(=O)N[C@@H](CC(C)C)C(=O)N[C@@H](CC(C)C)C(=O)N[C@H](C=O)CCCNC(=N)N [leupeptin]
therapeutic effect in animal models: therapeutic benefit
